Reference: patent US10189803B2, “Synthesis of therapeutic and diagnostic drugs centered on regioselective and stereoselective ring opening of aziridinium ions” (ILLINOIS INSTITUTE OF TECHNOLOGY, priority 2008, dated 2019)
Several values for one entry are separate records, joined by “and”; a condition that tells them apart may be missing. Equal values may be shown once. Read-outs that look alike come from different tables or passages of the source.

How the values were obtained:
[1] = T1 relaxivity of Gd(III) complexes (Bruker mq60 NMR analyzer); type: physicochemical; conditions: aqueous Gd(III) complexes; for T1 relaxivity: pH 7, 59.97 MHz, 37° C.
Description: Gd(NE3TA) and Gd(NE3TA-Bn) were synthesized by reacting GdCl3 with NE3TA and NE3TA-Bn, respectively. NE3TA or NE3TA-Bn were mixed with GdCl3 in a molar ratio of 1 to 0.9, and the resulting mixture at pH 7 was heated to 90° C. and stirred until no free Gd(III) ions were detected using an ArsenazoIII (AAIII) assay. Relaxivity of the aqueous […] complexes (pH 7) was measured on a Bruker MQ60 NMR analyzer, and the concentration of the Gd(III) complexes was measured by ICP-MS. […] NE3TA was successfully conjugated with the most common bile acid, cholic acid (FIG. 41).
(§1) Relaxivity Measurements. Relaxivity measurements were acquired by taking the slope of a plot of 1/T1 (s^−1) versus concentration (mM). The longitudinal water proton relaxation times (T1) were determined using a Bruker mq60 NMR (Bruker Canada, Milton, ON, Canada) analyzer operating at 59.97 MHz and 37° C. The agent was added to Millipore water and serially diluted by 0.5 to give a series of 5 concentrations (500 μL total volume) for each relaxivity trial. The T1 was determined using an inversion recovery pulse sequence with 10 different pulse separations per sample, 4 repetitions per echo time, phase cycling, and a recycle delay that is ≥5 times the T1 of each given sample. All curves were fit using a monoexponential curve fitting formula.
Relaxivity of the aqueous Gd(III) complexes (˜pH 7) were measured on a Bruker MQ60 NMR analyzer, and the concentration of the Gd(III) complexes were measured by ICP-MS. […] As mentioned above, the on and off binding to Gd(III) of one of the pendant coordinates would have resulted enhanced relaxivity of Gd(C-NETA) compared to Gd(C-DOTA). Among the evaluated Gd(III) complexes, Gd(C-NE3TA) gives the highest T1 relaxivity at 60 MHz, probably due to increase in q. The relaxation rates for the Gd(III) chelates are dominated by the inner-sphere dipolar coupling between the coordinated water molecule and the paramagnetic Gd(III). The measured relaxivities arise from the exchange between the coordinated water molecule and the surrounding water molecules in solution. […] No indication of Gd(III) dissociation is evident from the relaxivity data, which is in agreement with the in vitro serum stability and in vivo biodistribution studies.
as §1, with “The T1 relaxivity was determined” for “The T1 was determined”

[2] = In vivo biodistribution of radiolabeled complexes in normal athymic mice; conditions: non-tumor bearing mice, ± SD
Description: The in vivo stability of the radiolabeled complexes was evaluated by performing biodistribution studies in normal athymic mice. Selected organs and the blood were harvested at five time points, 0.5, 1, 4, 8, and 24 h post-injection and the radioactivity measured. […] C-NE3TA radiolabeled with ^153Gd was almost completely cleared from blood, liver, spleen, lung, heart, and femur in less than 4 hours, and radioactivity level in the kidney was 0.16%±0.11 ID/g at 24 hour post-injection (Table 9).
In vivo biodistribution studies oh the radiolabeled metal complexes. Female athymic mice were obtained from Charles River Laboratories (Wilmington, Mass.) at 4-6 weeks of age. The pH of the radiolabeled ligands was adjusted to pH ˜7.0 with 0.5 M sodium bicarbonate (pH 10.5) and diluted in phosphate-buffered saline. The radiolabeled ligands ([…] for ^86Y, ^205/6Bi, ^177Lu, and ^203Pb) were administered to the mice in 200 μL of solution via tail vein injection. The mice (5 per data point) were sacrificed by exsanguination at 0.5, 1, 4, 8, and 24 h. Blood and the major organs were harvested, wet-weighed and the radioactivity measured in a γ-scintillation counter (1480 Wizard, Perkin Elmer). The percent injected dose per gram (% ID/g) was determined for each tissue. The values presented are the mean and standard deviation for each tissue.

[3] = In vitro serum stability of radiolabeled C-NE3TA complexes in human serum (SE-HPLC); type: in vitro ADME; conditions: 37° C., up to 11 days
Description: C-NE3TA was radiolabeled with ^90Y, ^177Lu, ^203Pb, ^205/6Bi, or ^153Gd as previously described (Chong, H. S.; Milenic, D. E.; Garmestani, K.; Brady, E. D.; Arora, H.; Pfiester, C.; Brechbiel, M. W., Nucl. Med. Biol. 2006, 33, 459-67; Chong H S, Garmestani K, Bryant Jr., L H Milenic D E, Overstreet T, Birch N, Le N, Brady E D, Brechbiel M W. J. Med. Chem. 2006, 49, 2055-2062). In vitro serum stability of the radiolabeled complexes purified via ion-exchange chromatography was performed to determine if C-NE3TA labeled with the radioisotopes remained stable without transchelation or loss of their respective radionuclide in human serum. This was assessed by measuring the transfer of radionuclide from the complex to serum proteins over the course of 11 days.
In vitro stability of the radiolabeled metal complexes. The stability of the purified radiolabeled complexes was evaluated in human serum (Gemini Bioproducts, Woodland, Calif.) for up to 11 days. The serum stability of the radiolabeled complexes was assessed by measuring the transfer of the radionuclide from each complex to serum proteins using SE-HPLC methods. Radiolabeled complexes were diluted to an appropriate volume that allowed for preparation of multiple samples containing 5-10 μCi and were filter-sterilized using a Millex-GV 0.22 μm filter. This stock solution was then mixed with 1400 μL of sterile normal human serum. Aliquots (200 μL) were drawn and separated into individual tubes for subsequent analysis using aseptic technique. The samples were incubated at 37° C., and at designated intervals, subjected to analysis by SE-HPLC. Samples were loaded onto the HPLC and eluted with PBS, pH 7.4 isocratically at 1 mL/min. […] Radioactivity associated with a transfer to serum proteins generally appeared at ˜6 min.

[4] = cited from earlier work

O=C([O-])CN1CCN(CC(=O)[O-])CCN(CC(=O)O)CCN(CC(=O)[O-])CC1.[Gd+3] [Gd(DOTA), reference compound]
T1 relaxivity [1]: 2.97 mM⁻¹ s⁻¹

O=C(O)CNC(Cc1ccc([N+](=O)[O-])cc1)CN1CCN(CC(=O)O)CCN(CC(=O)O)CC1.[153Gd] (stereo not drawn) [^153Gd-C-NE3TA]
percent injected dose per gram, Blood ([2]; 0.50 hr): 1.41 ± 0.57 % ID/g
percent injected dose per gram, Femur ([2]; 0.50 hr): 0.43 ± 0.14 % ID/g
percent injected dose per gram, Heart ([2]; 0.50 hr): 0.43 ± 0.16 % ID/g
percent injected dose per gram, Kidney ([2]; 0.50 hr): 4.28 ± 1.33 % ID/g
percent injected dose per gram, Liver ([2]; 0.50 hr): 1.74 ± 0.69 % ID/g
percent injected dose per gram, Lung ([2]; 0.50 hr): 0.91 ± 0.28 % ID/g
percent injected dose per gram, Spleen ([2]; 0.50 hr): 0.50 ± 0.37 % ID/g
percent injected dose per gram, Blood ([2]; 1.00 hr): 0.20 ± 0.08 % ID/g
percent injected dose per gram, Femur ([2]; 1.00 hr): 1.30 ± 0.58 % ID/g
percent injected dose per gram, Heart ([2]; 1.00 hr): 0.14 ± 0.06 % ID/g
percent injected dose per gram, Kidney ([2]; 1.00 hr): 1.13 ± 0.12 % ID/g
percent injected dose per gram, Liver ([2]; 1.00 hr): 0.58 ± 0.22 % ID/g
percent injected dose per gram, Lung ([2]; 1.00 hr): 0.32 ± 0.09 % ID/g
percent injected dose per gram, Spleen ([2]; 1.00 hr): 0.24 ± 0.05 % ID/g
percent injected dose per gram, Blood ([2]; 4.00 hr): 0.00 ± 0.00 % ID/g
percent injected dose per gram, Femur ([2]; 4.00 hr): 0.02 ± 0.01 % ID/g
percent injected dose per gram, Heart ([2]; 4.00 hr): 0.01 ± 0.00 % ID/g
percent injected dose per gram, Kidney ([2]; 4.00 hr): 0.52 ± 0.04 % ID/g
percent injected dose per gram, Liver ([2]; 4.00 hr): 0.03 ± 0.01 % ID/g
percent injected dose per gram, Lung ([2]; 4.00 hr): 0.03 ± 0.00 % ID/g
percent injected dose per gram, Spleen ([2]; 4.00 hr): 0.02 ± 0.00 % ID/g
percent injected dose per gram, Blood ([2]; 8.00 hr): 0.00 ± 0.00 % ID/g
percent injected dose per gram, Femur ([2]; 8.00 hr): 0.02 ± 0.00 % ID/g
percent injected dose per gram, Heart ([2]; 8.00 hr): 0.01 ± 0.00 % ID/g
percent injected dose per gram, Kidney ([2]; 8.00 hr): 0.38 ± 0.06 % ID/g
percent injected dose per gram, Liver ([2]; 8.00 hr): 0.02 ± 0.00 % ID/g
percent injected dose per gram, Lung ([2]; 8.00 hr): 0.02 ± 0.00 % ID/g
percent injected dose per gram, Spleen ([2]; 8.00 hr): 0.02 ± 0.00 % ID/g
percent injected dose per gram, Blood ([2]; 24.00 hr): 0.00 ± 0.00 % ID/g
percent injected dose per gram, Femur ([2]; 24.00 hr): 0.01 ± 0.00 % ID/g
percent injected dose per gram, Heart ([2]; 24.00 hr): 0.13 ± 0.27 % ID/g
percent injected dose per gram, Kidney ([2]; 24.00 hr): 0.16 % ID/g and 0.16 ± 0.11 % ID/g
percent injected dose per gram, Liver ([2]; 24.00 hr): 0.02 ± 0.01 % ID/g
percent injected dose per gram, Lung ([2]; 24.00 hr): 0.01 ± 0.01 % ID/g
percent injected dose per gram, Spleen ([2]; 24.00 hr): 0.01 ± 0.01 % ID/g
stability in human serum (in words) [3]: no measurable loss of radioactivity

O=C(O)CNCCN1CCN(CC(=O)O)CCN(CC(=O)O)CC1.[Gd] [Gd(NE3TA)]
T1 relaxivity [1]: 3.94 mM⁻¹ s⁻¹

O=C([O-])CN1CCN(CCN(CC(=O)[O-])CC(=O)[O-])CCN(CC(=O)[O-])CC1.[Bi+3] [^205/6Bi-NETA]
retention in liver ([4]; 0 h): 5.93±0.78 % ID/g
retention in liver ([4]; 24 h): 7.31±1.521 % ID/g

O=C(O)CNC(Cc1ccc([N+](=O)[O-])cc1)CN1CCN(CC(=O)O)CCN(CC(=O)O)CC1.[Gd] (stereo not drawn) [Gd(C-NE3TA)]
T1 relaxivity of Gd(III) complexes of bifunctional ligands ([1]; ~pH 7, 60 MHz): 5.89 mM⁻¹ s⁻¹

O=C(O)CN1CCN(CCN(CC(=O)O)CC(=O)O)CCN(CC(=O)O)CC1.[177Lu] [^177Lu-NETA]
organ uptake and blood clearance (in words) ([4]; in vivo): very low organ uptake and rapid blood clearance
